Test results reported in patent publication US20020035061A1, “COMPOSITIONS AND METHODS FOR TREATING INFECTIONS USING CATIONIC PEPTIDES ALONE OR IN COMBINATION WITH ANTIBIOTICS” (priority 1996, published 2002).
Read-outs that look alike come from different tables or passages of the source.

Assays:
Assay type in all cases: cell-based
S. maltophilia = tested on: S. maltophilia
S. aureus = tested on: S. aureus
K. pneumoniae = tested on: K. pneumoniae
P. aeruginosa = tested on: P. aeruginosa
S. marcescens = tested on: S. marcescens
E. cloacae = tested on: E. cloacae
S. epidermidis = tested on: S. epidermidis
A. calcoaceticus = tested on: A. calcoaceticus
E. faecalis = tested on: E. faecalis
E. coli = tested on: E. coli

Sequence | MIC (S. maltophilia; S. maltophilia SMA002) | MIC (S. aureus; S. aureus SA014) | MIC (S. aureus; S. aureus SA093) | MIC (K. pneumoniae; K. pneumoniae KP001) | MIC (P. aeruginosa; P. aeruginosa PA004) | MIC (S. marcescens; S. marcescens SMS003) | MIC (E. cloacae; E. cloacae ECL007) | MIC (S. epidermidis; S. epidermidis SE010) | MIC (A. calcoaceticus; A. calcoaceticus AC002) | MIC (E. faecalis; E. faecalis EFS001) | MIC (E. faecalis; E. faecalis EFS008) | MIC (E. coli; E. coli ECO005) | further results
ALRWPWWPWRRK [MBI 11H01CN] | 32 µg/mL | 2 µg/mL | 1 µg/mL | 8 µg/mL | 128 µg/mL | >128 µg/mL | >128 µg/mL | 2 µg/mL | 2 µg/mL | 2 µg/mL | 8 µg/mL | 8 µg/mL | –
CLRWPWWPWRRK [MBI 11D19CN] | 64 µg/mL | 4 µg/mL | 2 µg/mL | 32 µg/mL | 128 µg/mL | >128 µg/mL | >128 µg/mL | 8 µg/mL | 8 µg/mL | 4 µg/mL | 64 µg/mL | 32 µg/mL | –
IARWPWWPWRRK [MBI 11H02CN] | 64 µg/mL | 2 µg/mL | 1 µg/mL | 32 µg/mL | >128 µg/mL | >128 µg/mL | >128 µg/mL | 4 µg/mL | 4 µg/mL | 2 µg/mL | 16 µg/mL | 16 µg/mL | –
ILAWPWWPWRRK [MBI 11H03CN] | 64 µg/mL | 2 µg/mL | 2 µg/mL | 16 µg/mL | >128 µg/mL | >128 µg/mL | >128 µg/mL | 4 µg/mL | 8 µg/mL | 2 µg/mL | 8 µg/mL | 16 µg/mL | –
ILKKNPNNPARRK [MBI 11CNX1] | >64 µg/mL | – | – | >64 µg/mL | – | >64 µg/mL | >64 µg/mL | – | – | – | – | 64 µg/mL | MIC (S. aureus; S. aureus SA006): 2 µg/mL; MIC (P. aeruginosa; P. aeruginosa PA024): >64 µg/mL; MIC (A. calcoaceticus; A. calcoaceticus AC001): >64 µg/mL; MIC (E. faecalis; E. faecalis EFS004): 16 µg/mL
ILKKNPNNPNRK [MBI 11B4ACN] | – | – | – | – | – | – | – | – | – | – | – | – | MIC (S. maltophilia; S. maltophilia strain SMA002): 64 µg/mL; MIC (S. aureus; S. aureus strain SA008): 1 µg/mL; MIC (K. pneumoniae; K. pneumoniae strain KP001): 32 µg/mL; MIC (P. aeruginosa; P. aeruginosa strain PA004): >128 µg/mL; MIC (S. marcescens; S. marcescens strain SMS003): >128 µg/mL; MIC (E. cloacae; E. cloacae strain ECL007): >128 µg/mL; MIC (S. epidermidis; S. epidermidis strain SE010): 8 µg/mL; MIC (A. calcoaceticus; A. calcoaceticus strain AC002): 4 µg/mL; MIC (E. faecalis; E. faecalis strain EFS008): 64 µg/mL; MIC (E. coli; E. coli strain ECO005): 32 µg/mL
ILKKNPNNPNRRK [MBI 11CNY1] | >64 µg/mL | – | – | >64 µg/mL | >64 µg/mL | >64 µg/mL | >64 µg/mL | 128 µg/mL | – | – | – | >64 µg/mL | MIC (S. aureus; S. aureus SA006): 16 µg/mL; MIC (A. calcoaceticus; A. calcoaceticus AC001): >64 µg/mL; MIC (E. faecalis; E. faecalis EFS004): >64 µg/mL
